Measurements as given in patent US11339171B2, “MDM2 inhibitors” (Gan & Lee Pharmaceuticals, priority 2017, dated 2022).

Legend:
MDM2 = target: T1, MDM2 (Homo sapiens, UniProt Q00987); assay: Inhibition test of MDM2-P53 (GST-MDM2, Biotin-P53, Anti-GST-Tb, SA-XL665); type: binding; details: for inhibitory effect on MDM2 compared with positive control compound HDM201: labels are Example numbers, the compounds with S-configuration are meant
T1 construct: made in house
How it was run: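 Compounds, serially diluted 5-fold (twelve concentrations), were shaken for 90 min at 25° C with a mix of GST-MDM2 (4 nM final), Biotin-P53, anti-GST-Tb and SA-XL665. Buffer: 1×PBS, 0.1% BSA, 5 mM DTT, 1 mM AEBSF; signal read on a microplate reader.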

[1] = tested on: human osteosarcoma cell line SJSA-1; assay: Inhibition of proliferation of human osteosarcoma cell line SJSA-1 (DAPI staining, In Cell Analyzer); details: for inhibitory effect on human osteosarcoma cell line SJSA-1 compared with positive control compound HDM201: labels are Example numbers, the compounds with S-configuration are meant; for IC50: Homo sapiens, SJSA-1, 72 h, read-out: IC50 (nM), inhibitory activity on proliferation of human osteosarcoma cell line SJSA-1, SJSA-1, incubated 72 h
Method: 2.2 Experiment Preparation:
2.2.1 Preparation of a culture medium for human osteosarcoma cell line SJSA-1: RPMI1640+10% FBS+1% penicillin/streptomycin
2.2.2 Preparation of a test compound solution:
a. the test compound solution with a certain concentration was taken, and diluted with the culture medium to obtain a compound solution with a final concentration of 20 μM;
b. 200 μL of a culture medium containing 0.2% DMSO (dimethyl sulfoxide) was added into H2-H10 of a 96-well plate; 300 μl of the above solution was added into H1; and
c. 100 μL was taken out from well H1, added into H2, and mixed well; then 100 μl of the resultant solution was taken and added into H3, and dilution was carried out in sequence until H9 to obtain the 3-fold serial dilution of the test compound.
2.3 Experimental Process:
2.3.1 SJSA-1 cells were inoculated into a 96-well cell plate with black transparent bottom at 4000 cells/100 μl/well, and cultured overnight at 37° C.;
2.3.3 Fixation: the cell plate was taken out, the culture medium was removed, and 50 μL of 4% paraformaldehyde solution was added to each well to fix for 10 min;
2.3.4 50 μl of 0.1 M glycine was added to neutralize for 10 min;
2.3.5 Washing was performed with 1×PBS (phosphate buffer solution pH7.2) twice;
2.3.6 Permeabilization: 50 μL of 0.2% TritonX-100 (Triton) was added per well, and permeabilization was carried out at room temperature for 10 min;
2.3.7 Washing was performed with 1×PBS (phosphate buffer solution pH7.2) twice;
2.3.9 Washing was performed with 1×PBS (phosphate buffer solution pH7.2) for three times; and
2.3.10 Scanning and analysis were performed by In cell analyzer.
The inhibition rate of each compound at each concentration point was calculated according to the following formula, and curve fitting was performed by GraphPad Prism 6.0 software to obtain the IC50 value.

T1 sequence (Q00987 whole entry): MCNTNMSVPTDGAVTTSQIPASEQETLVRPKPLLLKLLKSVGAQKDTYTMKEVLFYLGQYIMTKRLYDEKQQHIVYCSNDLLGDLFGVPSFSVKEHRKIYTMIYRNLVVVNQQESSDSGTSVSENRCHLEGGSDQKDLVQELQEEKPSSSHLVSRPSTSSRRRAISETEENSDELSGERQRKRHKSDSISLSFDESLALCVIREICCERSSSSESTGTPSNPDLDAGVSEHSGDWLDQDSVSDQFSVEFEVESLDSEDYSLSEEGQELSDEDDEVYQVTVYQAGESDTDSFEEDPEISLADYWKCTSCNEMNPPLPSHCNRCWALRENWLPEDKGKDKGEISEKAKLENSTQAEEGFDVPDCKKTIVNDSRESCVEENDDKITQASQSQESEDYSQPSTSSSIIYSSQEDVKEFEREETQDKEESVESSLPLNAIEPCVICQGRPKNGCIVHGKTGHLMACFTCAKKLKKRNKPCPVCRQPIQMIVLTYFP

SMILES | inhibitory effect on MDM2 compared with positive control compound HDM201 (MDM2) | inhibitory effect on human osteosarcoma cell line SJSA-1 compared with positive control compound HDM201 [1] | IC50 (MDM2) | IC50 [1]
COc1nc(N(C)C)ncc1-c1nc2c(n1C(C)C)C1(C(=O)Nc3cc(Cl)ccc31)N(c1cc(Cl)ccc1C)C2=O (stereo not drawn) [Example 82, 6-chloro-5′-(5-chloro-2-methylphenyl)-2′-(2-(dimethylamino)-4-methoxypyrimidin-5-yl)-3′-isopropyl-3′H-spiro[dihydroindole-3,4′-pyrrolo[3,4-d]imidazole]-2,6′(5′H)-dione] | better | better |  | 
COc1ccc(C(=O)O)cc1-c1nc2c(n1C(C)C)C1(C(=O)Nc3cc(Cl)ccc31)N(c1cc(Cl)ccc1C)C2=O (stereo not drawn) [Example 84, 3-(6-chloro-5′-(5-chloro-2-methylphenyl)-3′-isopropyl-2,6′-dioxo-5′,6′-dihydro-3′H-spiro[dihydroindole-3,4′-pyrrolo[3,4-d]imidazole]-2′-yl)-4-methoxybenzoic acid] |  |  | 3.78 nM | 2610 nM
COc1cc(OC)c(-c2nc3c(n2C(C)C)C2(C(=O)Nc4cc(Cl)ccc42)N(c2cc(Cl)ccc2C)C3=O)cc1F (stereo not drawn) [Example 92, 6-chloro-5′-(5-chloro-2-methylphenyl)-2′-(5-fluoro-2,4-dimethoxyphenyl)-3′-isopropyl-3′H-spiro[dihydroindole-3,4′-pyrrolo[3,4-d]imidazole]-2,6′(5′H)-dione] | better | better |  | 
CCOc1cc(OC)c(-c2nc3c(n2C(C)C)C2(C(=O)Nc4cc(Cl)ccc42)N(c2cc(Cl)cnc2C)C3=O)cn1 (stereo not drawn) [Example 96, 6-chloro-5′-(5-chloro-2-methylpyridin-3-yl)-2′-(6-ethoxy-4-methoxypyridin-3-yl)-3′-isopropyl-3′H-spiro[dihydroindole-3,4′-pyrrolo[3,4-d]imidazole]-2,6′(5′H)-dione] | better | better |  | 
CCOc1cc(OC)c(-c2nc3c(n2C(C)C)C2(C(=O)Nc4cc(Cl)ccc42)N(c2cc(Cl)ccc2F)C3=O)cn1 (stereo not drawn) [Example 98, 6-chloro-5′-(5-chloro-2-fluorophenyl)-2′-(6-ethoxy-4-methoxypyridin-3-yl)-3′-isopropyl-3′H-spiro[dihydroindole-3,4′-pyrrolo[3,4-d]imidazole]-2,6′(5′H)-dione] | better | better |  | 
CCOc1cc(OC)c(-c2nc3c(n2C(C)C)C2(C(=O)Nc4cc(Cl)ccc42)N(c2cccc(Cl)c2)C3=O)cn1 (stereo not drawn) [Example 102, 6-chloro-5′-(3-chlorophenyl)-2′-(6-ethoxy-4-methoxypyridin-3-yl)-3′-isopropyl-3′H-spiro[dihydroindole-3,4′-pyrrolo[3,4-d]imidazole]-2,6′(5′H)-dione] | better | better |  | 
COc1cc(C2CC2)ncc1-c1nc2c(n1C(C)C)C1(C(=O)Nc3cc(Cl)ccc31)N(c1cc(Cl)ccc1C)C2=O (stereo not drawn) [Example 103, 6-chloro-5′-(5-chloro-2-methylphenyl)-2′-(6-cyclopropyl-4-methoxypyridin-3-yl)-3′-isopropyl-3′H-spiro[dihydroindole-3,4′-pyrrolo[3,4-d]imidazole]-2,6′(5′H)-dione] | better | better |  | 
COc1cc(OC2CC2)ncc1-c1nc2c(n1C(C)C)C1(C(=O)Nc3cc(Cl)ccc31)N(c1cc(Cl)ccc1C)C2=O (stereo not drawn) [Example 110, 6-chloro-5′-(5-chloro-2-methylphenyl)-2′-(6-cyclopropoxy-4-methoxypyridin-3-yl)-3′-isopropyl-3′H-spiro[dihydroindole-3,4′-pyrrolo[3,4-d]imidazole]-2,6′(5′H)-dione] | better | better |  | 
COc1cc(N(C)C)ncc1-c1nc2c(n1C(C)C)C1(C(=O)Nc3cc(Cl)ccc31)N(c1cccc(Cl)c1)C2=O (stereo not drawn) [Example 113, 6-chloro-5′-(3-chlorophenyl)-2′-(6-(dimethylamino)-4-methoxypyridin-3-yl)-3′-isopropyl-3′H-spiro[dihydroindole-3,4′-pyrrolo[3,4-d]imidazole]-2,6′(5′H)-dione] | better | better |  | 
COc1cc(OC)c(-c2nc3c(n2C(C)C)C2(C(=O)Nc4cc(Cl)ccc42)N(c2cccc(Cl)c2)C3=O)cn1 (stereo not drawn) [Example 115, 6-chloro-5′-(3-chlorophenyl)-2′-(4,6-dimethoxypyridin-3-yl)-3′-isopropyl-3′H-spiro[dihydroindole-3,4′-pyrrolo[3,4-d]imidazole]-2,6′(5′H)-dione] | better | better |  | 
CCc1cc(-c2nc3c(n2C(C)C)C2(C(=O)Nc4cc(Cl)ccc42)N(c2cc(Cl)ccc2C)C3=O)c(OC)cc1N(C)C (stereo not drawn) [Example 125, 6-chloro-5′-(5-chloro-2-methylphenyl)-2′-(4-(dimethylamino)-5-ethyl-2-methoxyphenyl)-3′-isopropyl-3′H-spiro[dihydroindole-3,4′-pyrrolo[3,4-d]imidazole]-2,6′(5′H)-dione] |  |  | 20.8 nM | 60.3 nM
COc1nc(OC(C)C)ncc1-c1nc2c(n1C(C)C)C1(C(=O)Nc3cc(Cl)ccc31)N(c1cc(Cl)ccc1C)C2=O (stereo not drawn) [Example 126, 6-chloro-5′-(5-chloro-2-methylphenyl)-2′-(2-isopropoxy-4-methoxypyrimidin-5-yl)-3′-isopropyl-3′H-spiro[dihydroindole-3,4′-pyrrolo[3,4-d]imidazole]-2,6′(5′H)-dione] | better | better |  | 
COc1cc(OC)c(-c2nc3c(n2C(C)C)C2(C(=O)Nc4cc(Cl)ccc42)N(c2cc(Cl)cnc2C)C3=O)cn1 (stereo not drawn) [Example 131, 6-chloro-5′-(5-chloro-2-methylpyridin-3-yl)-2′-(4,6-dimethoxypyridin-3-yl)-3′-isopropyl-3′H-spiro[dihydroindole-3,4′-pyrrolo[3,4-d]imidazole]-2,6′(5′H)-dione] | better | better |  | 
COc1cc(OC(C)C)ncc1-c1nc2c(n1C(C)C)C1(C(=O)Nc3cc(Cl)ccc31)N(c1cc(Cl)cnc1C)C2=O (stereo not drawn) [Example 137, 6-chloro-5′-(5-chloro-2-methylpyridin-3-yl)-2′-(6-isopropoxy-4-methoxypyridin-3-yl)-3′-isopropyl-3′H-spiro[dihydroindole-3,4′-pyrrolo[3,4-d]imidazole]-2,6′(5′H)-dione] | better | better |  | 
COc1cc(C(F)(F)F)ncc1-c1nc2c(n1C(C)C)C1(C(=O)Nc3cc(Cl)ccc31)N(c1cc(Cl)ccc1C)C2=O (stereo not drawn) [Example 138, 6-chloro-5′-(5-chloro-2-methylphenyl)-3′-isopropyl-2′-(4-methoxy-6-(trifluoromethyl)pyridin-3-yl)-3′H-spiro[dihydroindole-3,4′-pyrrolo[3,4-d]imidazole]-2,6′(5′H)-dione] | better | better |  | 
